Assay results as given in patent US12435087B2, “Modulators of DCN-1 and methods of use thereof” (Cellarity, Inc., priority 2023, dated 2025).
Like-named read-outs stand apart in the source and are kept apart here.

Legend:
[1] = biological target: DCN2 (DCUND2) protein PONY domain (Homo sapiens (Human), UniProt Q6PH85); test: DCN2 TR-FRET assay, measurement of Kinact/KI; format: binding
Protocol: A TR-FRET Assay was performed to evaluate the ability of the compounds to bind DCN-2. The time resolved—Forster's resonance energy transfer (TR-FRET) assay was designed following the protocol established in (Scott et al., Nat Chem Biol. 2017 August; 13(8): 850-857). A recombinant form of the DCN2 (DCUND2) protein PONY domain was produced using an E. coli expression system at Viva Biotech China. The DCN2 protein was biotinylated (EZ sulfo-NHS-LC-biotin; Thermofisher) for labeling with 2.5 nM streptavidin terbium (Tb) cryptate in the reaction. The probe was changed to a non-covalent DCN1 inhibitor labeled with carboxyfluorescein (FAM; Zhou el al., Nat Commun. 2017; 8: 1150). Buffer conditions were modified to enhance protein stability by replacing TritonX with 0.05% Tween20 and increasing NaCl to 200 mM. […] The Kinact and KI measurements were taken to allow for continuous reads over 24 hrs. Plates were read every 5 min up to 1 hr, every 15 min up to 5 hr, and every hour up to 10 hours. Kinact and KI were calculated based on the following equations (Krippendorff B F, et al. Mechanism-based inhibition: deriving K(I) and k(inact) directly from time-dependent IC(50) values. J BiomolScreen. 2009; Mons E et al. A Comprehensive Guide for Assessing Covalent Inhibition in Enzymatic Assays Illustrated with Kinetic Simulations. […] The Kinact and KI values could be estimated from the tight curves of the IC50 values over time. [formula]

[2] = biological target: T1, DCN1 (DCUND1) protein PONY domain (Homo sapiens (Human), UniProt Q96GG9); test: Off-rate measurement of reversible covalent molecules (jump dilution TR-FRET with Cy5 probe); conditions: binding mode from off-rate measurement
T1 sequence (Q96GG9 60-248): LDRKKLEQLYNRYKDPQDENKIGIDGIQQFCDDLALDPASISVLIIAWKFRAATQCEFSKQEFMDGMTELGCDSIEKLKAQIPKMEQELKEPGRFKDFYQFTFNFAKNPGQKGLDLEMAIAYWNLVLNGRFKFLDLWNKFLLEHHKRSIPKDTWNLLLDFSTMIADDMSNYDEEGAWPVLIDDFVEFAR
Protocol: A TR-FRET assay was performed to classify the compounds as an irreversible covalent binder, a reversible covalent binder or a reversible binder.
An assay to measure the off-rate of reversible covalent molecules was developed. A typical covalent compound is assumed to stay bound to a protein for at least the life of that protein in the cell. In reality, there is a range of how long a covalent compounds remains bound before a reverse reaction takes place. Thus, some covalent bonds can be labeled as reversible as their reverse reaction takes place in a measurable amount of time under physiological conditions. The assay capitalizes on the range of covalent binders by using a high affinity covalent binder as a probe to displace the more reversible binders in an adaptation of the jump dilution method.
In this version of the jump dilution method, the increase in covalent probe binding over time was measured through a TR-FRET reaction between the covalent probe and the biotinylated target protein.
The recombinant form of the DCN1 (DCUND1) protein PONY domain was produced using an E. coli expression system at Viva Biotech (China). The DCN1 protein was biotinylated (EZ sulfo-NHS-LC-biotin; Thermofisher) for labeling with streptavidin terbium (Tb) cryptate in the reaction. This biotinylated protein was used in two forms of the TR-FRET assay as described below.
The off-rate measurement is executed in two steps based on the jump dilution method. […] The greatest dilution allowed within the constraints of the assay was chosen. These factors allow a competitive advantage for the covalent probe to replace the test compound when that compound releases from the target protein. The actual measure is the rate of increased TR-FRET signal as the covalent probe replaces the test compound over time. […] The resulting time dependent curve of the TR-FRET signal is fit to the following equation: Y=Y0+(Plateau−Y0)*(1−exp(−K*x))
K is the rate constant (1/unit of time). The residence time is defined as the inverse of K, the rate constant. The half-life is calculated as ln(2)/K.

[3] = biological target: T1, DCN1 (DCUND1) protein PONY domain; test: TR-FRET assay (binding to DCN-1, displacement of FAM-labeled probe)
Method in brief: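 Compounds read at 1, 5 and 24 h, 0.1% final DMSO, by TR-FRET between terbium-streptavidin on biotinylated DCN1 PONY domain (E. coli) and a FAM-tagged non-covalent inhibitor probe. Two setups used, 5 nM protein with 20 nM labelled probe, or 0.31 nM protein with 100 nM labelled plus 800 nM unlabelled probe; buffer had TritonX and 200 mM NaCl. % activity relative to high (with probe) and low (without probe) controls.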

[4] = 24 hr after treatment with compound, read-out: TR FRET IC50 24 hr

Chain of DCN2 (DCUND2) protein PONY domain (Q6PH85 60-248): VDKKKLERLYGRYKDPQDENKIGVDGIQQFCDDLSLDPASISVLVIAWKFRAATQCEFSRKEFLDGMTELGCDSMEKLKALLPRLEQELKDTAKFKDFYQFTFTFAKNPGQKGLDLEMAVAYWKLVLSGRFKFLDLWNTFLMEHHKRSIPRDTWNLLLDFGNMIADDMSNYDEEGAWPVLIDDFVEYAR

| SMILES | Ki [1] | kinact [1] | kinact/KI [1] | Category [2] | IC50 [3, 4] | IC50 ([3]; TR FRET IC50 1 hr (nM), 1 hr after treatment with compound) | IC50 ([3]; read-out: TR FRET IC50 1 hr, 1 hr after treatment with compound) |
| --- | --- | --- | --- | --- | --- | --- | --- |
| C/C=C(\CN1CCN(C2COC2)CC1)C(=O)Nc1cccc([C@@H]2c3cnn(-c4ccccc4)c3N(CC)C(=O)[C@H]2NC(=O)c2csc(C(F)(F)F)n2)c1 [Compound I-234, N-((4R,5S)-7-ethyl-4-(3-((E)-2-((4-(oxetan-3-yl)piperazin-1-yl)methyl)but-2-enamido)phenyl)-6-oxo-1-phenyl-4,5,6,7-tetrahydro-1H-pyrazolo[3,4-b]pyridin-5-yl)-2-(trifluoromethyl)thiazole-4-carboxamide] | > 0.5 nM | 0.00167 to 0.00333 s⁻¹ | 167000 to 3.33e+06 M⁻¹ s⁻¹ | irreversible | ≤ 200 nM | ≤ 200 nM | – |
| C=C(CN1CCOCC1)C(=O)Nc1cccc([C@@H]2c3c(C)nn(-c4ccccc4)c3N(CC)C(=O)[C@H]2NC(=O)c2cccc(C(F)(F)F)c2)c1 [Compound I-2, N-((4R,5S)-7-ethyl-3-methyl-4-(3-(2-(morpholinomethyl)acrylamido)phenyl)-6-oxo-1-phenyl-4,5,6,7-tetrahydro-1H-pyrazolo[3,4-b]pyridin-5-yl)-3-(trifluoromethyl)benzamide] | > 0.5 nM | 0.00333 to 0.005 s⁻¹ | 3.33e+06 to 8.33e+06 M⁻¹ s⁻¹ | irreversible | ≤ 200 nM | – | ≤ 200 nM |
